Like-named read-outs stand apart in the source and are kept apart here.
Columns and labels:
[1] = tested on: Candida albicans ATCC 10231; assay: Röhrchenverdünnungstest, fungistatic activity; format: cell-based; parameters: key: +: Wachstum; -: kein Wachstum; conditions: 72 h bei 37 °C
Method: (§1) Methodik der Prüfung auf bakteriostatische und fungistatische Wirksamkeit im Röhrchenverdünnungtest: In sterile Reagenzröhrchen werden je 5 ml der Verdünnungen der Prüfsubstanzen in Wasser standardisierter Härte mit 5 ml doppelt konzentrierter Caseinpepton-Sojamehl-Pepton-Lösung (CSL) vermischt. Zur Bestimmung der bakteriostatischen Wirkung werden die Röhrchen durch Zugabe von 0,1 ml einer 1 : 10 mit CSL verdünnten, 24 h bei 37 °C bebrüteten CSL-Kultur beimpft. Zur Prüfung der fungistatischen Wirkung werden je 0,1 ml einer unverdünnten, 72 h bei 37 °C bebrüteten CSL-Kultur von Candida albicans verwendet. Die Auswertung erfolgt nach einer Bebrütung von 72 h bei 37 °C. Es erfolgte außerdem eine Nachbeimpfung von CSA-Platten durch Ausstreichen der ? 72 h-Testlösungen", um das Wachstum der Testkeime zu beurteilen. Folgende Testkeime wurden eingesetzt: Sa: Staphylococcus aureus ATCC 6538 Ef: Enterococcus faecium ATCC 6057 Ec: Escherichia coli ATCC 11229 Pm: Proteus mirabilis ATCC 14153 Pa: Pseudomonas aeruginosa ATCC 15442 Ca: Candida albicans ATCC 10231

[2] = tested on: Proteus mirabilis ATCC 14153; assay: Röhrchenverdünnungstest, bacteriostatic activity; format: cell-based; parameters: key: +: Wachstum; -: kein Wachstum; conditions: 72 h bei 37 °C
Method: as §1

[3] = tested on: Enterococcus faecium ATCC 6057; assay: Röhrchenverdünnungstest, bacteriostatic activity; format: cell-based; parameters: key: +: Wachstum; -: kein Wachstum; conditions: 72 h bei 37 °C
Method: as §1

[4] = tested on: Escherichia coli ATCC 11229; assay: Röhrchenverdünnungstest, bacteriostatic activity; format: cell-based; parameters: key: +: Wachstum; -: kein Wachstum; conditions: 72 h bei 37 °C
Method: as §1

[5] = tested on: Staphylococcus aureus ATCC 6538; assay: Röhrchenverdünnungstest, bacteriostatic activity; format: cell-based; parameters: key: +: Wachstum; -: kein Wachstum; conditions: 72 h bei 37 °C
Method: as §1

[6] = tested on: Pseudomonas aeruginosa ATCC 15442; assay: Röhrchenverdünnungstest, bacteriostatic activity; format: cell-based; parameters: key: +: Wachstum; -: kein Wachstum; conditions: 72 h bei 37 °C
Method: as §1

[7] = tested on: Candida albicans ATCC 10231; assay: Quantitative suspension test, fungicidal activity (DGHM guideline); format: cell-based
Text: Methodik: Untersucht wurde ein Gemisch G 1 von 99,4 % MMPP und 0,6 % Decylthiouroniumbromid und ein Gemisch G 2 von 99,7 % MMPP und 0,3 % Decylthiouroniumbromid im Vergleich zu MMPP als Monowirkstoff entsprechend der Richtlinie für die Prüfung und Bewertung chemischer Desinfektionsverfahren der Deutschen Gesellschaft für Hygiene und Mikrobiologie. Testkeim: Candida albicans ATCC 10231 Enthemmer: Tween, Lecithin, Cystein (TLC)

Escherichia coli = assay: Agar incorporation test, bacteriostatic activity; format: cell-based; parameters: key: ⊕⊕: ungehemmtes Wachstum; ⊕: vermindertes Wachstum; -: absolute Hemmung (a. H.); conditions: 24 h bei 36 °C
Text: (§2) Methodik: Percarbamid und Dodecylthiouroniumchlorid werden unter städigem Durchmischen bis zur vollständigen Homogenisierung erwärmt. Die Prüfung der Kombination im Vergleich zu den entsprechenden Monowirkstoffen auf bakteriostatische Wirksamkeit erfolgte im Agarinkorporationstest. Die zu untersuchenden Substanzen wurden in Wasser standardisierter Härte gelöst. Die Konzentration der Testsubstanzen im Nähragar wurde in einer geometrischen Reihe auf der Basis 2 abgestuft. Zum Beimpfen der Testplatten wurden die im Beispiel 1 genannten Testkeime 6 h in Caseinpepton-Sojamehlpepton-Lösung bebrütet und so in eine logarithmische Wachstumsphase gebracht. Danach wurden die Agarplatten sternförmig sektorenweise mit jeweils einer ? abgestrichenen Öse beimpft. Der Sektor von Proteus mirabilis wurde durch Gräben abgetrennt, um das Schwärmen zu verhindern. Nach 24 h Bebrütung bei 36 °C erfolgte die Bewertung des Bakterienwachstums unter Vergleich mit substanzfreien Kontrollplatten nach folgendem Schema: ++++ ungehemmtes Wachstum +++ geringe Wachstumshemmung (maximal ¾ des Wachstums der Kontrollen) ++ mäßige Wachstumshemmung (maximal ½ des Wachstums der Kontrollen) + starke Wachstumshemmung (maximal ¼ des Wachstums der Kontrollen) Das sog. ? verminderte Wachstum" (v. W.) umfaßt die Bereiche + bis +++ - absolute Hemmung (a. H.)
(§3) In den Tabellen 5, 6 und 7 bedeuten ⊕⊕ ungehemmtes Wachstum und ⊕ vermindertes Wachstum.

Proteus mirabilis = assay: Agar incorporation test, bacteriostatic activity; format: cell-based; parameters: key: ⊕⊕: ungehemmtes Wachstum; ⊕: vermindertes Wachstum; -: absolute Hemmung (a. H.); conditions: 24 h bei 36 °C
Text: as §2, §3

Staphylococcus aureus = assay: Agar incorporation test, bacteriostatic activity; format: cell-based; parameters: key: ⊕⊕: ungehemmtes Wachstum; ⊕: vermindertes Wachstum; -: absolute Hemmung (a. H.); conditions: 24 h bei 36 °C
Text: as §2, §3

Enterococcus faecium = assay: Agar incorporation test, bacteriostatic activity; format: cell-based; parameters: key: ⊕⊕: ungehemmtes Wachstum; ⊕: vermindertes Wachstum; -: absolute Hemmung (a. H.); conditions: 24 h bei 36 °C
Text: as §2, §3

[8] = tested on: humanen Amnionepithelzellen; format: cell-based, human
Text: Methodik: Die Untersuchungen wurden an einer Perfusionszellkultur mit humanen Amnionepithelzellen durchgeführt. Der Glucoseverbrauch wurde kontinuierlich von 1 bis 96 Stunden biosensorisch gemessen (Jülich et al., im Druck). Die Prüfsubstanzen wirkten von der 25. bis 48. Stunde ein.

Pseudomonas aeruginosa = assay: Agar incorporation test, bacteriostatic activity; format: cell-based; parameters: key to Bakteriostatische Wirksamkeit (Wachstum): ⊕⊕: ungehemmtes Wachstum; ⊕: vermindertes Wachstum; -: absolute Hemmung (a. H.); conditions: for Bakteriostatische Wirksamkeit (Wachstum): 24 h bei 36 °C
Text: as §2, §3

[9] = tested on: Sporen von Bacillus subtilis var. niger ATCC 9372; assay: Sporicidal activity on spore test strips; format: cell-based; conditions: Monowirkstoff; Einwirkungszeit 3 Tage
Text: Methodik: Kommerzielle Teststreifen mit 10^6 Sporen von Bacillus subtilis var. niger ATCC 9372 (BAG-Bio Strips, Biologische Analysensystem GmbH Lich) wurden für 3 Tage in eine Lösung der Prüfsubstanz eingelegt. Danach wurden die Teststreifen in eine Nährlösung überführt und 7 Tage bebrütet.

[10] = tested on: FL-Linie (menschliche Amnionzellen); assay: Cytotoxicity, cell count of monolayer culture after 24 h exposure; format: cell-based, human; conditions: for Median der Zellzahl: 24 h
Method: Methodik: Die Zytotoxizität wird an der FL-Linie (menschliche Amnionzellen) geprüft. 2-3 Tage nach der Zelleinsaat werden die Zellen, nachdem sie als einschichtige Zellkultur (Monolayer) vorliegen, nach Medienwechsel für 24 h mit der Prüfsubstanz exponiert, danach abgelöst und die Zellzahl in % zur Kontrolle mit dem Zellzähler Universal 87001 (mölab, Hilden) ermittelt.

[11] = Konzentration in Wasser 0,0015 %
[12] = Konzentration in Wasser 0,003 %
[13] = Konzentration in Wasser 0,006 %
[14] = Konzentration in Wasser 0,012 %
[15] = Konzentration in Wasser 0,025 %

## O=C(O)c1ccccc1C(=O)OO [MMPP, Magnesiummonoperphthalat]
[1]; geprüfte Konzentration 0,85%
  Wachstum des Testkeims (Minimale Hemmkonzentrationen): -
[1]; geprüfte Konzentration 0,425%
  Wachstum des Testkeims (Minimale Hemmkonzentrationen): +
[2]; geprüfte Konzentration 0,85%
  Wachstum des Testkeims (Minimale Hemmkonzentrationen): -
[2]; geprüfte Konzentration 0,425%
  Wachstum des Testkeims (Minimale Hemmkonzentrationen): +
[3]; geprüfte Konzentration 0,85%
  Wachstum des Testkeims (Minimale Hemmkonzentrationen): -
[3]; geprüfte Konzentration 0,425%
  Wachstum des Testkeims (Minimale Hemmkonzentrationen): +
[4]; geprüfte Konzentration 0,85%
  Wachstum des Testkeims (Minimale Hemmkonzentrationen): -
[4]; geprüfte Konzentration 0,425%
  Wachstum des Testkeims (Minimale Hemmkonzentrationen): -
[5]; geprüfte Konzentration 0,5%
  Wachstum des Testkeims (Minimale Hemmkonzentrationen): +
[5]; geprüfte Konzentration 0,6%
  Wachstum des Testkeims (Minimale Hemmkonzentrationen): -
[5]; geprüfte Konzentration 0,85%
  Wachstum des Testkeims (Minimale Hemmkonzentrationen): -
[5]; geprüfte Konzentration 0,425%
  Wachstum des Testkeims (Minimale Hemmkonzentrationen): +
[6]; geprüfte Konzentration 0,85%
  Wachstum des Testkeims (Minimale Hemmkonzentrationen): -
[6]; geprüfte Konzentration 0,425%
  Wachstum des Testkeims (Minimale Hemmkonzentrationen): -
[7]; ATCC10231, 5 min, 0,5 %, x = 5, read-out: log. Reduktionsfaktoren bei einer Einwirkungszeit von x min
  log reduction at 0.5 %: 0.55
[7]; ATCC10231, 5 min, 0,6 %, x = 5, read-out: log. Reduktionsfaktoren bei einer Einwirkungszeit von x min
  log reduction at 0.6 %: 0.83
[7]; ATCC10231, 5 min, 0,425 %, x = 5, read-out: log. Reduktionsfaktoren bei einer Einwirkungszeit von x min
  log reduction at 0.425 %: 1
[7]; ATCC10231, 0.25 h, 0,5 %, x = 15, read-out: log. Reduktionsfaktoren bei einer Einwirkungszeit von x min
  log reduction at 0.5 %: 0.88
[7]; ATCC10231, 0.25 h, 0,6 %, x = 15, read-out: log. Reduktionsfaktoren bei einer Einwirkungszeit von x min
  log reduction at 0.6 %: 0.91
[7]; ATCC10231, 0.25 h, 0,425 %, x = 15, read-out: log. Reduktionsfaktoren bei einer Einwirkungszeit von x min
  log reduction at 0.425 %: 1.5
[7]; ATCC10231, 0.5 h, 0,5 %, x = 30, read-out: log. Reduktionsfaktoren bei einer Einwirkungszeit von x min
  log reduction at 0.5 %: 1.28
[7]; ATCC10231, 0.5 h, 0,6 %, x = 30, read-out: log. Reduktionsfaktoren bei einer Einwirkungszeit von x min
  log reduction at 0.6 %: 1.7
[7]; ATCC10231, 0.5 h, 0,425 %, x = 30, read-out: log. Reduktionsfaktoren bei einer Einwirkungszeit von x min
  log reduction at 0.425 %: 3.6

## Wasserstoffperoxid
Escherichia coli; Konzentration in Wasser 0,1 %
  Bakteriostatische Wirksamkeit (Wachstum): -
Escherichia coli; Konzentration in Wasser 0,2 %
  Bakteriostatische Wirksamkeit (Wachstum): -
Escherichia coli; Konzentration in Wasser 0,4 %
  Bakteriostatische Wirksamkeit (Wachstum): -
Escherichia coli; Konzentration in Wasser 0,05 %
  Bakteriostatische Wirksamkeit (Wachstum): -
Escherichia coli; Konzentration in Wasser 0,8 %
  Bakteriostatische Wirksamkeit (Wachstum): -
Escherichia coli; [11]
  Bakteriostatische Wirksamkeit (Wachstum): ⊕⊕
Escherichia coli; [12]
  Bakteriostatische Wirksamkeit (Wachstum): ⊕⊕
Escherichia coli; [13]
  Bakteriostatische Wirksamkeit (Wachstum): ⊕⊕
Escherichia coli; [14]
  Bakteriostatische Wirksamkeit (Wachstum): -
Escherichia coli; [15]
  Bakteriostatische Wirksamkeit (Wachstum): -
Proteus mirabilis; Konzentration in Wasser 0,1 %
  Bakteriostatische Wirksamkeit (Wachstum): -
Proteus mirabilis; Konzentration in Wasser 0,2 %
  Bakteriostatische Wirksamkeit (Wachstum): -
Proteus mirabilis; Konzentration in Wasser 0,4 %
  Bakteriostatische Wirksamkeit (Wachstum): -
Proteus mirabilis; Konzentration in Wasser 0,05 %
  Bakteriostatische Wirksamkeit (Wachstum): -
Proteus mirabilis; Konzentration in Wasser 0,8 %
  Bakteriostatische Wirksamkeit (Wachstum): -
Proteus mirabilis; [11]
  Bakteriostatische Wirksamkeit (Wachstum): ⊕⊕
Proteus mirabilis; [12]
  Bakteriostatische Wirksamkeit (Wachstum): ⊕⊕
Proteus mirabilis; [13]
  Bakteriostatische Wirksamkeit (Wachstum): ⊕⊕
Proteus mirabilis; [14]
  Bakteriostatische Wirksamkeit (Wachstum): -
Proteus mirabilis; [15]
  Bakteriostatische Wirksamkeit (Wachstum): -
Staphylococcus aureus; Konzentration in Wasser 0,1 %
  Bakteriostatische Wirksamkeit (Wachstum): -
Staphylococcus aureus; Konzentration in Wasser 0,2 %
  Bakteriostatische Wirksamkeit (Wachstum): -
Staphylococcus aureus; Konzentration in Wasser 0,4 %
  Bakteriostatische Wirksamkeit (Wachstum): -
Staphylococcus aureus; Konzentration in Wasser 0,05 %
  Bakteriostatische Wirksamkeit (Wachstum): -
Staphylococcus aureus; Konzentration in Wasser 0,8 %
  Bakteriostatische Wirksamkeit (Wachstum): -
Staphylococcus aureus; [11]
  Bakteriostatische Wirksamkeit (Wachstum): ⊕⊕
Staphylococcus aureus; [12]
  Bakteriostatische Wirksamkeit (Wachstum): ⊕⊕
Staphylococcus aureus; [13]
  Bakteriostatische Wirksamkeit (Wachstum): ⊕⊕
Staphylococcus aureus; [14]
  Bakteriostatische Wirksamkeit (Wachstum): -
Staphylococcus aureus; [15]
  Bakteriostatische Wirksamkeit (Wachstum): -
Enterococcus faecium; Konzentration in Wasser 0,1 %
  Bakteriostatische Wirksamkeit (Wachstum): -
Enterococcus faecium; Konzentration in Wasser 0,2 %
  Bakteriostatische Wirksamkeit (Wachstum): -
Enterococcus faecium; Konzentration in Wasser 0,4 %
  Bakteriostatische Wirksamkeit (Wachstum): -
Enterococcus faecium; Konzentration in Wasser 0,05 %
  Bakteriostatische Wirksamkeit (Wachstum): -
Enterococcus faecium; Konzentration in Wasser 0,8 %
  Bakteriostatische Wirksamkeit (Wachstum): -
Enterococcus faecium; [11]
  Bakteriostatische Wirksamkeit (Wachstum): ⊕⊕
Enterococcus faecium; [12]
  Bakteriostatische Wirksamkeit (Wachstum): ⊕⊕
Enterococcus faecium; [13]
  Bakteriostatische Wirksamkeit (Wachstum): ⊕
Enterococcus faecium; [14]
  Bakteriostatische Wirksamkeit (Wachstum): -
Enterococcus faecium; [15]
  Bakteriostatische Wirksamkeit (Wachstum): -
[8]
  Glucosestoffwechsel der FL-Zellen: signifikante, aber reversible Verminderung
Pseudomonas aeruginosa; Konzentration in Wasser 0,1 %
  Bakteriostatische Wirksamkeit (Wachstum): -
Pseudomonas aeruginosa; Konzentration in Wasser 0,2 %
  Bakteriostatische Wirksamkeit (Wachstum): -
Pseudomonas aeruginosa; Konzentration in Wasser 0,4 %
  Bakteriostatische Wirksamkeit (Wachstum): -
Pseudomonas aeruginosa; Konzentration in Wasser 0,05 %
  Bakteriostatische Wirksamkeit (Wachstum): -
Pseudomonas aeruginosa; Konzentration in Wasser 0,8 %
  Bakteriostatische Wirksamkeit (Wachstum): -
Pseudomonas aeruginosa; [11]
  Bakteriostatische Wirksamkeit (Wachstum): ⊕⊕
Pseudomonas aeruginosa; [12]
  Bakteriostatische Wirksamkeit (Wachstum): ⊕⊕
Pseudomonas aeruginosa; [13]
  Bakteriostatische Wirksamkeit (Wachstum): ⊕⊕
Pseudomonas aeruginosa; [14]
  Bakteriostatische Wirksamkeit (Wachstum): ⊕⊕
Pseudomonas aeruginosa; [15]
  Bakteriostatische Wirksamkeit (Wachstum): ⊕⊕
Pseudomonas aeruginosa; single substance, resistentester Testkeim
  Konzentration, durch die Pseudomonas aeruginosa gehemmt wird (minimale Hemmkonzentration): 0,05%
[9]
  Konzentration erforderlich zur Erreichung dieses Effektes (Reduktion der Sporen von 6 log-Stufen): 0,6%
[10]
  Zellwachstum: vollständigen Inhibierung des Zellwachstums
[10]; Prüfkonzentration 0,001 %
  Median der Zellzahl: 17,9 % der Kontrolle
[10]; Prüfkonzentration 0,0015 %
  Median der Zellzahl: 7,3 % der Kontrolle

From EP0940081A1, “Combinations of active agents and disinfectants, preservatives and antiseptics containing same” (Bode Chemie GmbH & Co., priority 1998, dated 1999)
